Where two headings read alike, the source gives them in different places. Some results are limits rather than exact numbers.

For this experiment, the target named is T1, Human TREM2 (Homo sapiens, UniProt Q9NZC2).
T1 construct: expressed in transfected cells
As to the kind of experiment: Human TREM2 activity: cellular phosphorylation of Syk (AlphaLISA SureFire Ultra p-SYK) in HEK293/DAP12+TREM2 stable cell line. Format: cell-based. As to conditions: for Emax: maximal response relative to reference agonist example 1B (remaining examples); for EC50: phospho-Syk AlphaLISA signal, HEK293/DAP12+TREM2 cells, concentration giving 50% of maximal response, read-out: EC50. A digest of the protocol: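 HEK293 cells stably co-expressing human TREM2 and DAP12 were seeded at 10,000 cells/well and used 20–24 h later. Compounds were tested at 8 concentrations (top 100 μM, 1:6 steps, 0.5% DMSO) for 30 min at 37 °C. Syk phosphorylation at Tyr525/526 was read in lysates by AlphaLISA SureFire Ultra.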

T1 sequence (Q9NZC2 19-230): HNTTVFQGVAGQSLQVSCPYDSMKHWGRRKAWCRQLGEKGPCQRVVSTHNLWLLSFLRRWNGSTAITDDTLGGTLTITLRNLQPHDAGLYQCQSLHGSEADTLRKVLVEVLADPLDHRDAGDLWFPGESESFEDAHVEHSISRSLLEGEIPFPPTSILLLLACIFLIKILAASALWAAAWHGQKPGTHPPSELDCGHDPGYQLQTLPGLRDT
T1 sequence (O43914 22-113 partner): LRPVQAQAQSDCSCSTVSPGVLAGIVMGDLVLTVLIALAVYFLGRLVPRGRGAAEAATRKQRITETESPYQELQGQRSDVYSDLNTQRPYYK

Broadly, the Emax is the greatest response seen or fitted, relative to the assay's reference. By EC50 is commonly meant the concentration needed to bring the measured effect to its halfway point. For `Cc1nc2c(-c3ccc(F)cc3F)nc(N3CCO[C@H](c4cnn(C)c4)C3)cc2c(=O)n1C` (single isomer, unassigned) [Example 129B], the concentration for a half-maximal effect (EC50) fell in the range of 10 to 100 nM. The Emax (HEK293, read-out: Emax) was under 75%.

`Cc1nc2c(-c3ccc(Cl)cc3F)nc(N3CCOC(C)(c4cnn(C)c4)C3)nc2c(=O)n1C` (centres unmarked) [Example 55, 8-(4-chloro-2-fluorophenyl)-2,3-dimethyl-6-(2-methyl-2-(1-methyl-1H-pyrazol-4-yl)morpholino)pyrimido[5,4-d]pyrimidin-4(3H)-one]: the EC50 was over 1000 nM. Moreover, the Emax (HEK293, read-out: Emax) is under 75%.

As to `Cc1nc2c(-c3ccc(Cl)cc3F)nc(N3C[C@H](c4cnn(C)c4)OC4(CC4)C3)nc2c(=O)n1C` (single isomer, unassigned) [Example 108B], the EC50 fell in the range of 100 to 1000 nM. Further, the Emax (HEK293, read-out: Emax) is under 75%.

For the compound `Cc1nc2c(-c3ccc(C#N)cc3F)nc(N3C[C@@H](C)O[C@@H](c4cnn(C5CC5)c4)C3)cc2c(=O)n1C` (single isomer, unassigned) [Example 200B], the EC50 was 10 to 100 nM. For the same compound, under “HEK293, read-out: Emax”, the Emax fell in the range of 75 to 110%.

In the case of `Cc1cc([C@H]2CN(c3cc4c(=O)n(C)c(C)nc4c(-c4ccc(C(F)(F)F)nc4)n3)CC(C)(C)O2)ccn1` (single isomer, unassigned) [Example 161B], the EC50 was in the range of 1 to 10 nM. Besides, under “HEK293, read-out: Emax”, the maximal response (Emax) lay within 75 to 110%.

On to `Cc1nc2c(-c3ccc(Cl)cc3F)nc([C@@H]3CCO[C@H](c4cnn(C5CC5)c4)C3)nc2c(=O)n1C` (single isomer, unassigned) [Example 24A], for which the EC50 was in the range of 1 to 10 nM. Besides, the Emax (HEK293, read-out: Emax) fell in the range of 75 to 110%.

Consider `Cc1nc2c(-c3ccc(C(F)(F)F)cc3F)nc(N3CCO[C@@H](c4cnn(C5CC5)c4)C3)nc2c(=O)n1C` (single isomer, unassigned) [Example 20B], for which the 50% effective concentration (EC50) lay within 1 to 10 nM. Moreover, where the note is “HEK293, read-out: Emax”, the Emax was 75 to 110%.

Consider `Cc1nc2c(-c3ccc(C(F)(F)F)cc3F)nc(N3CCOC(c4cnn(C)c4)C3)nc2c(=O)n1C` (centres unmarked) [Example 10, 8-(2-fluoro-4-(trifluoromethyl)phenyl)-2,3-dimethyl-6-(2-(1-methyl-1H-pyrazol-4-yl)morpholino)pyrimido[5,4-d]pyrimidin-4(3H)-one], for which the EC50 was in the range of 100 to 1000 nM. Besides, the maximum response (Emax) (HEK293, read-out: Emax) lay in the range of 75 to 110%.

With `Cc1nc2c(-c3ccc(C(F)(F)F)cc3F)cc([C@H]3CCO[C@@H](c4cnn(C5CC5)c4)C3)cc2c(=O)n1C` (single isomer, unassigned) [Example 118B], the 50% effective concentration (EC50) was over 1000 nM. Also, the maximal response (Emax) (HEK293, read-out: Emax) is under 75%.

`Cc1nc2c(-c3ccc(Cl)cc3F)nc([C@@H]3CCO[C@H](c4cnn(C)c4)C3)nc2c(=O)n1C` (single isomer, unassigned) [Example 67]: the 50% effective concentration (EC50) lay in the range of 100 to 1000 nM. The maximal effect (Emax) (HEK293, read-out: Emax) was over 110%.

As for `Cc1cc([C@H]2CN(c3cc4c(=O)n(C)c(C)nc4c(-c4ccc(F)cc4F)n3)C[C@@H](C)O2)ccn1` (single isomer, unassigned) [Example 182B], the EC50 is 100 to 1000 nM. In addition, the Emax (HEK293, read-out: Emax) was under 75%.

For `Cc1nc2c(-c3ccc(Cl)cc3F)nc(N3CCOC(c4cc[nH]n4)C3)nc2c(=O)n1C` (centres unmarked) [Example 47, 6-(2-(1H-pyrazol-3-yl)morpholino)-8-(4-chloro-2-fluorophenyl)-2,3-dimethylpyrimido[5,4-d]pyrimidin-4(3H)-one], the EC50 lay within 100 to 1000 nM. Further, the Emax (HEK293, read-out: Emax) is under 75%.

On to `Cc1nc2c(C3CCC(C)CC3)nc(N3CCOC(c4cnn(C)c4)C3)nc2c(=O)n1C` (centres unmarked) [Example 12b, 2,3-dimethyl-6-(2-(1-methyl-1H-pyrazol-4-yl)morpholino)-8-((1r,4r)-4-methylcyclohexyl)pyrimido[5,4-d]pyrimidin-4 (3H)-one], for which the Emax result is recorded as “++ (75-110%)” and the EC50 lay within 100 to 1000 nM.

On to `Cc1cc([C@@H]2CN(c3cc4c(=O)n(C)c(C)nc4c(-c4ccc(C(F)F)nc4)n3)CC(F)(F)O2)ccn1` (single isomer, unassigned) [Example 181A], for which the EC50 is 10 to 100 nM. In addition, the maximal effect (Emax) (HEK293, read-out: Emax) is under 75%.

Turning to `COCCn1c(C)nc2c(-c3ccc(Cl)cc3F)nc(N3CCOC(c4cnn(C)c4)C3)nc2c1=O` (centres unmarked) [Example 61, 8-(4-chloro-2-fluorophenyl)-3-(2-methoxyethyl)-2-methyl-6-(2-(1-methyl-1H-pyrazol-4-yl)morpholino)pyrimido[5,4-d]pyrimidin-4(3H)-one], the EC50 lay in the range of 10 to 100 nM. For the same compound, the maximal effect (Emax) (HEK293, read-out: Emax) is under 75%.

Consider `Cn1c(C(F)(F)F)nc2c(-c3cc(F)c(F)cc3F)nc([C@H]3CCO[C@@H](c4cnn(C5CC5)c4)C3)nc2c1=O` (single isomer, unassigned) [Example 186B], for which the concentration for a half-maximal effect (EC50) lay within 100 to 1000 nM. For the setting “HEK293, read-out: Emax”, the maximal effect (Emax) is under 75%.

With `Cn1c(C(F)(F)F)nc2c(-c3ccc(F)cc3F)nc([C@@H]3CCO[C@H](c4cnn(C5CC5)c4)C3)cc2c1=O` (single isomer, unassigned) [Example 197A], the half-maximal effective concentration (EC50) lay within 10 to 100 nM. In addition, the Emax (HEK293, read-out: Emax) is under 75%.

As to `Cc1cc([C@@H]2CN(c3nc(-c4cc(F)c(F)cc4F)c4nc(C)n(C)c(=O)c4n3)CCO2)ccn1` (single isomer, unassigned) [Example 123A], the EC50 fell in the range of 1 to 10 nM. For the same compound, under “HEK293, read-out: Emax”, the maximum response (Emax) is over 110%.

With `Cc1nc2c(-c3ccc(Cl)cc3F)nc([C@H]3CCO[C@@H](c4cnn(C5CC5)c4)C3)nc2c(=O)n1C` (racemic) [Example 14, 8-(4-chloro-2-fluorophenyl)-6-((2R,4S)-2-(1-cyclopropyl-1H-pyrazol-4-yl)tetrahydro-2H-pyran-4-yl)-2,3-dimethylpyrimido[5,4-d]pyrimidin-4 (3H)-one], the EC50 is 100 to 1000 nM. For the setting “HEK293, read-out: Emax”, the maximum response (Emax) is 75 to 110%.

Take `Cc1cc([C@@H]2CN(c3nc(-c4ccc(C(F)(F)F)cc4F)c4nc(C)n(C)c(=O)c4n3)CC(C)(C)O2)ccn1` (single isomer, unassigned) [Example 124A]: the EC50 is 10 to 100 nM. Moreover, where the note is “HEK293, read-out: Emax”, the maximal effect (Emax) lay in the range of 75 to 110%.

As to `Cc1cc([C@@H]2CN(c3cc4c(=O)n(C)c(C)nc4c(-c4ccc(F)cc4F)n3)CC(F)(F)O2)ccn1` (single isomer, unassigned) [Example 171A], the half-maximal effective concentration (EC50) was in the range of 1 to 10 nM. In addition, the maximal effect (Emax) (HEK293, read-out: Emax) is over 110%.

With `Cc1nc2c(-c3ccc(Cl)cc3F)nc(N3CC(c4cnn(C)c4)OC(F)(F)C3)nc2c(=O)n1C` (centres unmarked) [Example 115, 8-(4-chloro-2-fluorophenyl)-6-(2,2-difluoro-6-(1-methyl-1H-pyrazol-4-yl)morpholino)-2,3-dimethylpyrimido[5,4-d]pyrimidin-4 (3H)-one], the EC50 was 1 to 10 nM. Under “HEK293, read-out: Emax”, the Emax lay in the range of 75 to 110%.

As for `Cc1nc2c(-c3cc(C(F)(F)F)nn3C)nc(N3CCOC(c4cnn(C)c4)C3)nc2c(=O)n1C` (centres unmarked) [Example 99, 2,3-dimethyl-6-(2-(1-methyl-1H-pyrazol-4-yl)morpholino)-8-(1-methyl-3-(trifluoromethyl)-1H-pyrazol-5-yl)pyrimido[5,4-d]pyrimidin-4 (3H)-one], the concentration giving a half-maximal response (EC50) was in the range of 100 to 1000 nM. Under “HEK293, read-out: Emax”, the maximal response (Emax) was under 75%.

In the case of `Cc1cc([C@@H]2CN(c3cc4c(=O)n(C)c(C)nc4c(-c4ccc(Cl)cc4F)n3)CC(C)(C)O2)ccn1` (single isomer, unassigned) [Example 172A], the EC50 fell in the range of 100 to 1000 nM. The Emax (HEK293, read-out: Emax) is under 75%.

As to `Cc1nc2c(-c3cc(F)c(F)cc3F)nc(N3C[C@H](c4cnn(C)c4)OC4(CC4)C3)cc2c(=O)n1C` (single isomer, unassigned) [Example 146B], the EC50 was over 1000 nM. Moreover, for the setting “HEK293, read-out: Emax”, the Emax is under 75%.

The values above are taken from US20260200926A1, “TREM2 MODULATORS” (Muna Therapeutics ApS, priority 2022, published 2026).
